Where a name gives a salt, the structure may show the parent alone.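 Five concentrations, 48 hours, 96-well plates. GI50: concentration for 50% inhibition of growth.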 Activity calls are given as the source filed them. Cut-off read from the data, not from the text of the source: active = GI50 up to about 1.1 µM and inactive = higher.
Experiments:
Test in all cases: NCI-60 cell line screen, 48 h
DU-145 = tested on: DU-145
NCI/ADR-RES = tested on: NCI/ADR-RES
HCT-15 = tested on: HCT-15
CCRF-CEM = tested on: CCRF-CEM
PC-3 = tested on: PC-3
OVCAR-8 = tested on: OVCAR-8
SW-620 = tested on: SW-620
SF-539 = tested on: SF-539
A549 = tested on: A549
HCT-116 = tested on: HCT-116
OVCAR-5 = tested on: OVCAR-5
SN12C = tested on: SN12C
Hs-578T = tested on: Hs-578T
MDA-MB-231 = tested on: MDA-MB-231
SK-MEL-5 = tested on: SK-MEL-5
T47D = tested on: T47D
NCI-H522 = tested on: NCI-H522
TK-10 = tested on: TK-10
Malme-3M = tested on: Malme-3M
HOP-92 = tested on: HOP-92

Compound | GI50 (DU-145) | GI50 (NCI/ADR-RES) | GI50 (HCT-15) [µM] | GI50 (CCRF-CEM) | GI50 (PC-3) | GI50 (OVCAR-8) | GI50 (SW-620) | GI50 (SF-539) | GI50 (A549) | GI50 (HCT-116) | GI50 (OVCAR-5) | GI50 (SN12C) | GI50 (Hs-578T) | GI50 (MDA-MB-231) | GI50 (SK-MEL-5) | GI50 (T47D) | GI50 (NCI-H522) | GI50 (TK-10) | GI50 (Malme-3M) | GI50 (HOP-92)
CCNCC(O)COc1ccc2c(c1)[n+]([O-])nc(N)[n+]2[O-] (centres undefined) | 71.3 µM (inactive) | > 100 µM (inactive) | 63.7 | 19 µM (inactive) | 24.7 µM (inactive) | 56 µM (inactive) | 32.7 µM (inactive) | 37.3 µM (inactive) | 24.2 µM (inactive) | 50.2 µM (inactive) | > 100 µM (inactive) | 45.4 µM (inactive) | 54.6 µM (inactive) | > 100 µM (inactive) | 24.8 µM (inactive) | 81.8 µM (inactive) | 12.6 µM (inactive) | > 100 µM (inactive) | – | –
C=C(C)[C@H]1CC23C(=O)C(C(=O)C(C)C)=C(O)[C@](C)(C[C@H]2C1(C)C)C3=O [LALIBINONE B] | 35.7 µM (inactive) | 13.1 µM (inactive) | 17.2 | 8.3 µM (inactive) | 12.6 µM (inactive) | 17.9 µM (inactive) | 17.8 µM (inactive) | – | 20.3 µM (inactive) | – | 14.5 µM (inactive) | 17 µM (inactive) | 23 µM (inactive) | 15.6 µM (inactive) | 17.7 µM (inactive) | 30.9 µM (inactive) | 16.5 µM (inactive) | 20.2 µM (inactive) | 14.3 µM (inactive) | –
CC(=O)O[C@H]1[C@@H](N2CCCCC2)C[C@H]2[C@@H]3CC=C4C[C@@H](N5CCCC5)CC[C@]4(C)[C@H]3CC[C@@]21C | – | > 100 µM (inactive) | 19.4 | 31.9 µM (inactive) | 43.4 µM (inactive) | > 100 µM (inactive) | > 100 µM (inactive) | 17.8 µM (inactive) | > 100 µM (inactive) | 64.3 µM (inactive) | 48.6 µM (inactive) | > 100 µM (inactive) | > 100 µM (inactive) | > 100 µM (inactive) | 32.4 µM (inactive) | > 100 µM (inactive) | > 100 µM (inactive) | > 100 µM (inactive) | 22.8 µM (inactive) | 91.8 µM (inactive)
CC(=O)NNc1nc(C)c(C(=O)/C=C/C=C/c2ccccc2)s1 | 54.5 µM (inactive) | 70.6 µM (inactive) | > 100 | 61.2 µM (inactive) | – | > 100 µM (inactive) | > 100 µM (inactive) | > 100 µM (inactive) | – | 57.1 µM (inactive) | > 100 µM (inactive) | > 100 µM (inactive) | > 100 µM (inactive) | 65.5 µM (inactive) | > 100 µM (inactive) | 33.2 µM (inactive) | 61.9 µM (inactive) | > 100 µM (inactive) | > 100 µM (inactive) | > 100 µM (inactive)
NCCS [CYSTEAMINE HYDROCHLORIDE] | > 100 µM (inactive) | > 100 µM (inactive) | > 100 | > 100 µM (inactive) | > 100 µM (inactive) | > 100 µM (inactive) | > 100 µM (inactive) | 45.8 µM (inactive) | > 100 µM (inactive) | > 100 µM (inactive) | > 100 µM (inactive) | > 100 µM (inactive) | > 100 µM (inactive) | > 100 µM (inactive) | > 100 µM (inactive) | > 100 µM (inactive) | > 100 µM (inactive) | > 100 µM (inactive) | > 100 µM (inactive) | –
CCOC(=O)c1c(SCCO)n(-c2ccccc2)c(=S)n(-c2ccccc2)c1=O | > 100 µM (inactive) | > 100 µM (inactive) | > 100 | > 100 µM (inactive) | > 100 µM (inactive) | > 100 µM (inactive) | > 100 µM (inactive) | – | > 100 µM (inactive) | > 100 µM (inactive) | > 100 µM (inactive) | > 100 µM (inactive) | > 100 µM (inactive) | – | > 100 µM (inactive) | > 100 µM (inactive) | > 100 µM (inactive) | > 100 µM (inactive) | > 100 µM (inactive) | > 100 µM (inactive)
C1CSC[C@H]2COC[C@@H](CSCCS1)S2 | > 100 µM (inactive) | > 100 µM (inactive) | > 100 | > 100 µM (inactive) | > 100 µM (inactive) | > 100 µM (inactive) | > 100 µM (inactive) | > 100 µM (inactive) | > 100 µM (inactive) | > 100 µM (inactive) | > 100 µM (inactive) | > 100 µM (inactive) | – | > 100 µM (inactive) | > 100 µM (inactive) | > 100 µM (inactive) | > 100 µM (inactive) | 50.4 µM (inactive) | – | > 100 µM (inactive)
CC1=NC(=Cc2ccc(O)cc2)C(=O)N1n1c(-c2ccccc2)nc2ccccc2c1=O | > 100 µM (inactive) | – | > 100 | > 100 µM (inactive) | > 100 µM (inactive) | > 100 µM (inactive) | > 100 µM (inactive) | > 100 µM (inactive) | > 100 µM (inactive) | > 100 µM (inactive) | – | > 100 µM (inactive) | > 100 µM (inactive) | > 100 µM (inactive) | > 100 µM (inactive) | > 100 µM (inactive) | > 100 µM (inactive) | > 100 µM (inactive) | > 100 µM (inactive) | –
CCCNC(=O)CCC(C)[C@H]1CCC2C3C(C[C@H](OC(C)=O)[C@@]21C)[C@@]1(C)CCC2(C[C@H]1C[C@H]3OC(C)=O)OOC1(CCCCC1)OO2 (some centres undefined) | 1.85 µM (inactive) | 2.39 µM (inactive) | 3.68 | 1.73 µM (inactive) | 1.69 µM (inactive) | 1.42 µM (inactive) | 4.58 µM (inactive) | 3.66 µM (inactive) | 0.416 µM (active) | 2.93 µM (inactive) | 2.67 µM (inactive) | 3.01 µM (inactive) | 7.33 µM (inactive) | 1.94 µM (inactive) | 2.46 µM (inactive) | 2.11 µM (inactive) | 0.473 µM (active) | 1.95 µM (inactive) | 2.13 µM (inactive) | –
Cc1ccc(-n2cc(-c3ccc(Cl)cc3)c(C#N)c2N)cc1 | 25.2 µM (inactive) | 17.3 µM (inactive) | 12.1 | 15.5 µM (inactive) | 12.6 µM (inactive) | 15.9 µM (inactive) | 13.2 µM (inactive) | 16.6 µM (inactive) | 17.4 µM (inactive) | 14 µM (inactive) | 15.1 µM (inactive) | 14.8 µM (inactive) | 2.38 µM (inactive) | 14.7 µM (inactive) | 16.1 µM (inactive) | – | 12.1 µM (inactive) | 14.7 µM (inactive) | 18 µM (inactive) | 17 µM (inactive)
CC1(C)CC2=C(SC3C=CC=CC3N2)C(=O)C1C(=O)C(N)=O (centres undefined) | > 100 µM (inactive) | > 100 µM (inactive) | > 100 | > 100 µM (inactive) | 65.9 µM (inactive) | > 100 µM (inactive) | > 100 µM (inactive) | > 100 µM (inactive) | > 100 µM (inactive) | > 100 µM (inactive) | > 100 µM (inactive) | > 100 µM (inactive) | > 100 µM (inactive) | > 100 µM (inactive) | > 100 µM (inactive) | – | 72.3 µM (inactive) | > 100 µM (inactive) | – | > 100 µM (inactive)
O=c1[nH]c(=O)n(C2OC(CO)C(O)C2O)c2ccsc12 (centres undefined) | > 100 µM (inactive) | > 100 µM (inactive) | > 100 | > 100 µM (inactive) | > 100 µM (inactive) | > 10 µM (inactive) | > 100 µM (inactive) | > 100 µM (inactive) | > 100 µM (inactive) | > 100 µM (inactive) | > 100 µM (inactive) | > 100 µM (inactive) | > 100 µM (inactive) | > 100 µM (inactive) | > 100 µM (inactive) | – | > 100 µM (inactive) | > 100 µM (inactive) | > 100 µM (inactive) | > 100 µM (inactive)
O=C(/C=C/c1ccsc1)c1ccc(Cl)cc1 | > 100 µM (inactive) | 78.3 µM (inactive) | 39.7 | 21.9 µM (inactive) | 70.8 µM (inactive) | 64.7 µM (inactive) | 33.6 µM (inactive) | 76.7 µM (inactive) | > 100 µM (inactive) | 23.7 µM (inactive) | 56.1 µM (inactive) | 43.4 µM (inactive) | 57.8 µM (inactive) | 63.7 µM (inactive) | > 100 µM (inactive) | 74.8 µM (inactive) | – | > 100 µM (inactive) | 33.1 µM (inactive) | –
CC(C)CCC[C@@H](C)C1CCC2[C@@H]3CCC4C[C@@H](NS(C)(=O)=O)CC[C@]4(C)C3CC[C@@]21C (some centres undefined) | > 100 µM (inactive) | > 100 µM (inactive) | > 100 | > 100 µM (inactive) | > 100 µM (inactive) | > 100 µM (inactive) | > 100 µM (inactive) | > 100 µM (inactive) | > 100 µM (inactive) | > 100 µM (inactive) | – | > 100 µM (inactive) | > 100 µM (inactive) | > 100 µM (inactive) | > 100 µM (inactive) | > 100 µM (inactive) | > 100 µM (inactive) | > 100 µM (inactive) | > 100 µM (inactive) | –
CCOC(=O)C(NC(=O)CC(C)C)(Nc1ccc(C(F)(F)F)cc1)C(F)(F)F (centres undefined) | 89.9 µM (inactive) | 22.6 µM (inactive) | 29 | 35.6 µM (inactive) | 20 µM (inactive) | 27.1 µM (inactive) | 57.8 µM (inactive) | > 100 µM (inactive) | > 100 µM (inactive) | 17.2 µM (inactive) | > 100 µM (inactive) | > 100 µM (inactive) | 25.5 µM (inactive) | – | 82.8 µM (inactive) | 18.4 µM (inactive) | 16.7 µM (inactive) | 40.5 µM (inactive) | 96.4 µM (inactive) | 30.3 µM (inactive)

From ChEMBL document CHEMBL1201862, “PubChem BioAssay data set” (2004)
